From patent US7476691B2, “Sulfamate benzothiophene derivatives as steroid sulfatase inhibitors” (Laboratoire Theramex, priority 2003, dated 2009) come the findings set out here.

Data set [1] deals with ovariectomized Wistar female rats. The data set can be described thus: Antiuterotrophic/antisulfatase activity: inhibition of E1S stimulated uterus weight. Type of data set: in vivo, rat. Particulars: for % inhibition of the E1S induced stimulation (uterus weight): ovariectomized rats, E1S 50 μg/kg/day s.c., compound oral 1 mg/kg/day for 4 days. On the procedure: A short model, derived from Purohit's method, was developed for the evaluation in vivo of nonestrogenic steroid sulfatase inhibitors.
Wistar female rats were ovariectomized and left to rest for 4 weeks. Prior to treatment, the absence of cyclicity was checked by vaginal smears.
Animals were supplemented with estrone sulfate (E1S) at 50 μg/kg/day s.c., alone or combined with oral administration of potential sulfatase inhibitors, at 1 mg/kg/day for 4 days. The uteri were removed, freed of adjacent tissue and wet weighed.
The results are expressed as % of inhibition of the E1S induced stimulation.
The activity of Ex 55 on E1S stimulated uterus weight was evaluated in relation to the standard inhibitor 6,6,7 COUMATE from 0.03 mg/kg/day to 1 mg/kg/day p.o.
(§1) In this study, a last administration was performed 24 hours before the necropsy for E1S and E2 serum levels assays. The uteri were removed, freed of adjacent tissue, wet weighed and immediately deep frozen until the determination of sulfatase activity.

The target in data set [2] is T1, estrone sulfatase (Rattus norvegicus, UniProt P15589).
T1 construct: uteri were thawed, weighed and homogenized; from tissue; host or cells: uterus of animals dosed orally (ex vivo homogenate supernatant)
T1 sequence (P15589 20-577): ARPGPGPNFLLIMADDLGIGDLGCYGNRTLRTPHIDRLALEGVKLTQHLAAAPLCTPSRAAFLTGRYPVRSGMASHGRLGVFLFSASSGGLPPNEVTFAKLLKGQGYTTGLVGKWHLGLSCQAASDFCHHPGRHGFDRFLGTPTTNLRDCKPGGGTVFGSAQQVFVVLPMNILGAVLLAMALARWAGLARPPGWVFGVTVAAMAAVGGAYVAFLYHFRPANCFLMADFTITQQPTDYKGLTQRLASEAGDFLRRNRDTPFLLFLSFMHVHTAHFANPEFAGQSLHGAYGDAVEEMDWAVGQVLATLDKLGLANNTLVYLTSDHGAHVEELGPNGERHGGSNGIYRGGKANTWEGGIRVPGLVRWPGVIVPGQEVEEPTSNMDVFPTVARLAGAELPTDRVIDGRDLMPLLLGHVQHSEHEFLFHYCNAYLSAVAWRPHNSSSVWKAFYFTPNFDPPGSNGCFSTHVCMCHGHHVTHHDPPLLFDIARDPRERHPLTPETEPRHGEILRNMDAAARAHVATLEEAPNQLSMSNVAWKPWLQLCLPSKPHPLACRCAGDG
In words: Estrone sulfatase activity in the uterus of treated rats. Type of data set: in vivo. The protocol:
as §1
Estrone sulfatase activity was measured according to the method described by Purohit et al., with slight modifications. Briefly, uteri were thawed, weighed and homogenized. Aliquots of the supernatant were treated with dextran-coated charcoal and assayed for sulfatase. E1S activity was assessed after 30 min of incubation with 5 nM of ^3H-E1S and 20 μM of unlabelled E1S as substrate. Radioactivity was measured by LSC.
Estrone sulfatase activity was expressed as pmol/h/mg protein and reported as percentage of inhibition versus E1S.

Data set [3] is described as follows: Serum estrogen levels (E1S and E2) in treated rats. The data set is classed as in vivo, rat. To be noted: 24 h after last administration. The protocol: as §1
E1S and E2 levels were determined according to the supplier's standard method (DSL, Webster, Tex., USA).

The test system of the next data set is MCF-7 cells. The data set can be described thus: Hormono-dependent induced MCF-7 xenografts: volume and weight. The data set is classed as in vivo, mice. To be noted: oral 0.1 mg/kg/day for 6 weeks. The protocol: (§2) MCF-7 cells, derived from human breast adenocarcinoma, were injected subcutaneously in ovariectomized athymic nude mice supplemented with estrone sulfate (pellets 0.5 mg/90 day release). Xenograft volumes were determined once weekly. When tumor volumes reached a significant increase, 6,6,7 COUMATE and Ex 55 were orally administered at 0.1 mg/kg/day for 6 weeks.
(§3) Xenografts were measured, removed, weighed, and deep frozen until the determination of steroid sulfatase activity.

The target of the next data set is T2, steroid sulfatase (Homo sapiens, UniProt P08842).
T2 construct: from tissue; host or cells: MCF-7 xenograft tumour removed from athymic nude mice
T2 sequence (P08842 22-583): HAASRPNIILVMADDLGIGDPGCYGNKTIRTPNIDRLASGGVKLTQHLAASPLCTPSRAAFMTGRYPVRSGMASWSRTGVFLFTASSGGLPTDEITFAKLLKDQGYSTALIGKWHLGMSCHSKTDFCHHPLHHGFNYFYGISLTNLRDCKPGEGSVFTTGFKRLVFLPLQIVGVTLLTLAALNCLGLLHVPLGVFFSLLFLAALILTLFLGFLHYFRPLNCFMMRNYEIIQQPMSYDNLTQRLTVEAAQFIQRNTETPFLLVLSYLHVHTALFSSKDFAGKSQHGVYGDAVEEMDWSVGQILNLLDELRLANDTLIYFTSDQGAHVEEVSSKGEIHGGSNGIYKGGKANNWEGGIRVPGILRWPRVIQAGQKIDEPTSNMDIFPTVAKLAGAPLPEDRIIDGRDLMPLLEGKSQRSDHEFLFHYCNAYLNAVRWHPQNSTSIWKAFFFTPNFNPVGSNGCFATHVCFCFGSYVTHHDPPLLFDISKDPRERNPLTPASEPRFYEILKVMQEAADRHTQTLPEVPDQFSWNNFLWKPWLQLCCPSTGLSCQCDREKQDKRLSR
In words: Xenograft steroid sulfatase activity. Particulars: oral 0.1 mg/kg/day for 6 weeks. Type of data set: in vivo, mouse. On the procedure:
as §2, §3

The next data set has as its system prepubescent female rats. The data set can be described thus: Residual estrogenic activity in vivo (uterotrophic assay). To be noted: prepubescent female rats, oral, 1 mg/rat/day for 3 days.
In data set [4] the target is T3, estrone sulfatase (Homo sapiens, UniProt P08842).
T3 sequence (P08842 22-583): T2 sequence (P08842 22-583)
In words: Estrone sulfatase whole-cell assay on JEG-3 cells. Type of data set: cell-based. On the set-up: The JEG-3 cell line, derived from a human placental choriocarcinoma, is spontaneously very rich in human estrone sulfatase; endogenous in cells; host or cells: JEG-3 (human placental choriocarcinoma), intact cells. Particulars: 4 h treatment, 3H-E1S, read-out: IC50 (nM) ± S.E.M., inhibition of estrone sulfatase. On the procedure:
(§4) Two in vitro models on whole cells were used. […] Moreover, these cells were used in the in vivo model of hormono-dependent induced xenografts.
(§5) Estrone Sulfatase Assay on Cells
(§6) Whole-cell assays were performed as originally described by Duncan et al. (Cancer Res., 1993, 53: 298-303) on intact MCF-7 cell monolayers. Assays were carried out with cells in logarithmic growth phase, on 96-well (JEG-3) or 24-well (MCF-7) microplates. Twenty-four hours (JEG-3) or 72 h (MCF-7) before studies, cells were seeded in decomplemented fetal calf serum (dFCS) supplemented medium. Then, the seeding medium was removed and the cells were rinsed with PBS to eliminate any trace of dFCS. Then, ^3H-E1S was added, followed by test compounds ranging from 10^−12 M to 10^−5 M. After 4 h (JEG-3) or 20 h (MCF-7) of treatment, the medium was transferred into either 96-deep-well microplates (JEG-3) or plastic tubes (MCF-7) and centrifuged at 200×g for 10 min to pellet cells before toluene extraction. A fraction of medium was used for toluene extraction in order to separate conjugated substrate and non-conjugated products. The radioactivity in the toluene phase was measured by liquid scintillation counting (LSC). Finally, estrone sulfatase activity was expressed in pmoles of ^3H-E1+^3H-E2 formed per 4 or 20 hours and per μg DNA and estrone sulfatase inhibition in percentage of control activity without inhibitor.

Data set [5] has as its target T3, estrone sulfatase. In words: Estrone sulfatase whole-cell assay on MCF-7 cells. Type of data set: cell-based. On the set-up: Whole-cell assays were performed as originally described by Duncan et al. (Cancer Res., 1993, 53: 298-303) on intact MCF-7 cell monolayers; endogenous in cells; host or cells: MCF-7 (human breast adenocarcinoma), intact monolayers. Particulars: 20 h treatment, 3H-E1S, read-out: IC50 (nM) ± S.E.M., inhibition of estrone sulfatase. The protocol:
as §4, §5, §6

Where [6] appears, read: MCF-7 xenografts, nude mice with E1S pellet.

SMILES strings stand for the structures.

Experimental for prepubescent female rats: These compounds were checked for residual estrogenic activity in vivo in the classical uterotrophic assay after 3-day administration by oral route in prepubescent female rats.
Prepubescent female rats were orally treated at 1 mg/rat/day for 3 days. On the day following the last treatment, uteri were removed and wet weight were recorded.
The results are expressed as % of stimulation of uterus weight in comparison with controls.

For `NS(=O)(=O)Oc1ccc2c3c(c(=O)oc2c1)CCCCC3` [6,6,7-COUMATE, reference compound], the “Inhibition of E1S stimulated uterus weight” value in [1] (0.03 mg/kg/day p.o.) stood at 0%; in data set [1] (0.1 mg/kg/day p.o.) it was 13%; in data set [1] (0.3 mg/kg/day p.o.), 52%; in data set [1] (1 mg/kg/day p.o.), 84%. Also, the “% inhibition of the E1S induced stimulation (uterus weight)” value in data set [1] was 86%. For the same compound, the “Estrone sulfatase activity in the uterus, percentage of inhibition versus E1S” value on estrone sulfatase [2] (0.03 mg/kg/day p.o.) turned out to be 36%; on estrone sulfatase [2] (0.1 mg/kg/day p.o.) it was 78%; on estrone sulfatase [2] (0.3 mg/kg/day p.o.), 96%; at estrone sulfatase [2] (1 mg/kg/day p.o.) it was 97%. In addition, the “E1S levels (serum)” value in data set [3] (0.03 mg/kg/day p.o.) amounted to 24 ± 3.1 ng/mL; in [3] (0.1 mg/kg/day p.o.), 26 ± 2.6 ng/mL; in [3] (0.3 mg/kg/day p.o.), 59 ± 6.4 ng/mL; in data set [3] (1 mg/kg/day p.o.), 80 ± 5.7 ng/mL. Moreover, the “E2 levels (serum)” value came out at 33 ± 5.8 pg/mL in data set [3] (0.03 mg/kg/day p.o.), 28 ± 2.5 pg/mL in data set [3] (0.1 mg/kg/day p.o.), 18 ± 1.1 pg/mL in [3] (0.3 mg/kg/day p.o.) and 16 ± 1.5 pg/mL in data set [3] (1 mg/kg/day p.o.). In the data set on MCF-7 cells (setting [6]), the “Xenograft volume after 6 week treatment” value came out at 1854 ± 243 mm^3. The “Xenograft weight after 6 week treatment” value with MCF-7 cells (setting [6]) came to 1467 ± 191 mg. Also, the “inhibition of the E1S induced stimulation (xenograft volume)” value with MCF-7 cells is recorded as “did not inhibit”. For the same compound, in the data set with MCF-7 cells, the “inhibition of xenograft weight” value was “did not inhibit”. In addition, on steroid sulfatase (MCF-7 xenografts), the “Xenograft steroid sulfatase activity” value is recorded as 540 ± 54 pmol/h/mg protein. Moreover, the inhibition (as a rule, the relative decrease from the control value, in per cent) at 0.1 mg/kg/day on steroid sulfatase (read-out: inhibition of intratumoral steroid sulfatase activity) is 67%. Also, in the data set with prepubescent female rats, the “% stimulation of uterus weight in comparison with controls” value is recorded as 3%.
As to `NS(=O)(=O)Oc1ccc2c(c1)S(=O)(=O)C(C1CCCCC1)=C2` [Ex 44, Sulfamic acid, 2-cyclohexyl-benzothiophene-6-yl-1,1-dioxide ester], the melting point – broadly, the temperature of the solid-liquid transition – amounted to 180 °C. In addition, in data set [1], the “% inhibition of the E1S induced stimulation (uterus weight)” value is reported as 70%. Further, the “% stimulation of uterus weight in comparison with controls” value in the data set with prepubescent female rats was 0%. Also, the IC50 (as a rule, the concentration that gives 50% inhibition) on estrone sulfatase [4] stood at 10.9 ± 2.6 nM. The half-inhibitory concentration (IC50) at estrone sulfatase [5] was 0.24 ± 0.05 nM.
